Measured values from patent publication US10111900B2, “β-glucan methods and compositions that affect the tumor microenvironment” (Biothera, Inc., priority 2014, dated 2018).
Entries after “also recorded” stand apart in the source; their conditions may differ.

Assays:
IL-4 = IL-4 in supernatants of macrophage and CD4 T cell co-cultures; format: cell-based, human; conditions: M2 macrophage and CD4 T cell co-cultures
Procedure: CD14^+ monocytes from human whole blood were enriched using Ficoll gradient and magnetic bead separation. Enriched monocytes (5×10^5 cells per mL) were then cultured in either M1-polarizing (XVivo 10 media (Lonza Group) supplemented with 5% autologous serum and 100 ng/mL recombinant human granulocyte macrophage colony-stimulating factor (rhGM-CSF) (R&D Systems) or M2-polarizing (XVivo 10 media supplemented with 10% autologous serum and 50 ng/mL recombinant human macrophage colony-stimulating factor (rhM-CSF) (R&D Systems) conditions for 6 days. In experiments performed to evaluate the effect of β-glucan, whole blood was first incubated with vehicle (sodium citrate buffer) or 25 μg/mL soluble β-glucan for 2 hours at 37° C. and then the monocytes were isolated and differentiated. Morphology was checked before macrophages were harvested for phenotypic analysis. […] T cell proliferation was measured at the end of the experiment (day 9-day 11) by flow cytometry, and results are graphically shown as CFSE-dilution peaks. […] Quantitative results were reported as the Division Index (the average number of cell divisions a population underwent) calculated for each of the triplicate wells in each of the culture conditions. […]
Modulation of IFN-γ and IL-4 production of vehicle- and β-glucan-treated M2 macrophages was then evaluated. […]

CD33+ MDSC = test: MDSC in peripheral blood of a case study subject treated with IMPRIME PGG; format: in vivo, human; conditions: within hours post-infusion, cycle 8, day 1
Description: Blood was drawn at various times from a case study subject undergoing treatment with IMPRIME PGG and analyzed for the presence of MDSC. The first blood draw was done pre-infusion, cycle 8, day 1. […] A second blood draw was done post-infusion, cycle 8, day 1. […] The last blood sample was drawn pre-infusion, cycle 8, day 15. The CD33^+ MDSC are again present in the peripheral blood.

IFN-γ = IFN-γ in supernatants of macrophage and CD4 T cell co-cultures (ELISA); format: cell-based, human
Procedure: CD14^+ monocytes from human whole blood were enriched using Ficoll gradient and magnetic bead separation. Enriched monocytes (5×10^5 cells per mL) were then cultured in either M1-polarizing (XVivo 10 media (Lonza Group) supplemented with 5% autologous serum and 100 ng/mL recombinant human granulocyte macrophage colony-stimulating factor (rhGM-CSF) (R&D Systems) or M2-polarizing (XVivo 10 media supplemented with 10% autologous serum and 50 ng/mL recombinant human macrophage colony-stimulating factor (rhM-CSF) (R&D Systems) conditions for 6 days. In experiments performed to evaluate the effect of β-glucan, whole blood was first incubated with vehicle (sodium citrate buffer) or 25 μg/mL soluble β-glucan for 2 hours at 37° C. and then the monocytes were isolated and differentiated. Morphology was checked before macrophages were harvested for phenotypic analysis. Culture medium of the day 6 macrophage culture (MCM) was collected, spun down to remove contaminated cell pellet and then frozen down for subsequent cytokine analysis by ELISA or used to setup a co-culture with CD3 & CD28-stimulated CD4 T cells (MCM-CD4 T) for evaluation of either surface markers or CD4 T cell proliferation. The macrophages were used to setup a co-culture with CD3 & CD28- or CD3 only-stimulated CD4 T cells (Mac-CD4 T) on day 6 for evaluation of either surface marker modulation or effect on CD4 T cell proliferation. For Mac-CD4 T cell proliferation study, M1 or M2 macrophages were cultured with CD3 & CD28- or CD3 only-stimulated, CFSE-labeled, autologous CD4 T cells at a 1:10 ratio. T cell proliferation was measured at the end of the experiment (day 9-day 11) by flow cytometry, and results are graphically shown as CFSE-dilution peaks. The assessment of CD3-only stimulated T cells was always done on day 11. Quantitative results were reported as the Division Index (the average number of cell divisions a population underwent) calculated for each of the triplicate wells in each of the culture conditions. Culture supernatants of Mac-CD4 T cell co-cultures were collected for subsequent cytokine analysis.
The culture supernatants from the CFSE dilution T-cell proliferation assay (FIG. 2B) were also measured for IFN-gamma levels by ELISA. […] Thus, β-glucan affects M2 to M1 repolarization and drives anti-tumorigenic Th1 polarization.
M2 macrophages from 4 high binders and 4 low binders were prepared and evaluated for their ability to modulate CD4 T cell proliferation. The supernatants from the various CD4 T cell proliferation conditions were measured for IFN-γ by ELISA. Results shown in FIG. 10 are representative from 4 different experiments. Fold change over the IFN-γ levels produced in the co-cultures of vehicle-treated M2 macrophages and CD4 T cells are plotted for each of the 4 donors.

M1 macrophages = test: Flow cytometry of M1/M2 markers on M1 macrophages derived from β-glucan-treated whole blood; format: cell-based, human
Procedure: CD14^+ monocytes from human whole blood were enriched using Ficoll gradient and magnetic bead separation. […] T cell proliferation was measured at the end of the experiment (day 9-day 11) by flow cytometry, and results are graphically shown as CFSE-dilution peaks. […] Quantitative results were reported as the Division Index (the average number of cell divisions a population underwent) calculated for each of the triplicate wells in each of the culture conditions. […]
Expression of a panel of markers was evaluated by flow cytometry for vehicle- and β-glucan-treated, high binder-derived M1 and M2 macrophages (CD163 was evaluated twice).
CD163 and CD86 were evaluated by flow cytometry for vehicle- and β-glucan-treated, low binder-derived M1 and M2 macrophages.

Tregs = test: Treg suppression assay; format: cell-based, human
Procedure: Since these PBMC cultures contain Tregs, the suppressive ability of Tregs seem to be altered in the presence of soluble β-glucan and studies were carried out to determine if β-glucan affected Treg suppression. Plasma from β-glucan-treated or vehicle-treated whole blood (described above) was added to 25,000 isolated CFSE-labeled autologous CD4 T cells (CD4^+CD25^−) along with increasing numbers of isolated autologous Tregs (CD4^+CD25^+) resulting in wells with increasing ratios. Cells were then stimulated with 50,000 T cell activating CD3/28 beads for 3 days. Proliferation was subsequently measured by CFSE dilution and quantified by Division Index, which was used to calculate the % suppression of Tregs in the co-culture. % suppression=100-(Division Index of Treg well/Division Index of 1:0 well)[…].
The Treg suppression assay was conducted as described above, and after 3 days of co-culture, supernatants were analyzed for IFN-gamma production.

CD4 T cells = test: Mac-CD4 T co-culture, surface marker modulation on T cells; format: cell-based, human; conditions: T cells co-cultured with β-glucan-treated vs vehicle-treated M2 macrophages
Procedure: For evaluation of Mac-CD4 T cell surface marker modulation, M2 macrophages were co-cultured with T cells as described above and cells were harvested on day 8, day 9 and day 10 to perform surface receptor staining on both M2 macrophages and T cells.
Changes in surface marker expression on both macrophages and CD3 & CD28-stimulated T cells were also measured. Vehicle- and β-glucan-treated M2 macrophages and CD T cells from the co-cultures were evaluated by flow cytometry for the modulation of co-stimulatory or co-inhibitory molecules. FIG. 8C and Table 9 are representative results from 2 different experiments.

CD33+ MDSC in peripheral blood (CD33+ MDSC): transiently disappear
Substance: β(1,6)-[poly-(1,3)-D-glucopyranosyl]-poly-β(1,3)-D-glucopyranose [β-glucan]
production of IL-4 (IL-4): no change
production of IFN-γ (IFN-γ; M2 in TCM / M2a in IL-4 co-cultured with CD4 T cells): significantly increased production
production of IFN-γ (IFN-γ; M2 macrophage and CD4 T cell co-cultures, high binders): significantly increased production
production of IFN-γ (IFN-γ; M2 macrophages and CD4 T cells, cell-to-cell contact study): significantly increased production
production of IFN-γ (IFN-γ; low binder crossed-over with high binder's serum): significantly increased production
IFN-gamma production (IFN-γ; supernatants of M2 macrophage and CD4 T cell co-culture): concomitant increase
CD163 (2) median MFI (M1 macrophages; M1 macrophages, high binder): 230
M1 macrophage phenotype (M1/M2-specific markers) (M1 macrophages; β-glucan pretreatment vs vehicle): did not affect
IFN-gamma production (Tregs; Treg suppression assay, 3 days, 8:1 T cell to Treg ratio): enhanced IFN-gamma production
suppressive capacity of Tregs (Tregs; plasma from β-glucan-treated vs vehicle-treated whole blood): significant decreases
Change in MFI on T cells: 4-1BB (CD4 T cells): No change
Change in MFI on T cells: CD28 (CD4 T cells): No change
Change in MFI on T cells: CD40L (CD4 T cells): No change
Change in MFI on T cells: CTLA-4 (CD4 T cells): No change
Change in MFI on T cells: PD1 (CD279) (CD4 T cells; day 9): Increased expression; also recorded: Increase
